In publication PMC10730845, “Endoxifen downregulates AKT phosphorylation through protein kinase C beta 1 inhibition in ERα+ breast cancer” (NPJ Breast Cancer, 2023):
“And” between values parts separate entries of the source, which are not always exact repeats. Equal entries are not always repeated.

Assays:
PKCβ1 [1] = biological target: T1, PKCβ1 (Homo sapiens, UniProt P05771); experiment: In vitro kinase assay, PKCβ1 kinase activity; assay type: biochemical; details: 10 μM ATP, three-fold serial dilution from 50 μM, Fig. 6d
T1 sequence (P05771 whole entry): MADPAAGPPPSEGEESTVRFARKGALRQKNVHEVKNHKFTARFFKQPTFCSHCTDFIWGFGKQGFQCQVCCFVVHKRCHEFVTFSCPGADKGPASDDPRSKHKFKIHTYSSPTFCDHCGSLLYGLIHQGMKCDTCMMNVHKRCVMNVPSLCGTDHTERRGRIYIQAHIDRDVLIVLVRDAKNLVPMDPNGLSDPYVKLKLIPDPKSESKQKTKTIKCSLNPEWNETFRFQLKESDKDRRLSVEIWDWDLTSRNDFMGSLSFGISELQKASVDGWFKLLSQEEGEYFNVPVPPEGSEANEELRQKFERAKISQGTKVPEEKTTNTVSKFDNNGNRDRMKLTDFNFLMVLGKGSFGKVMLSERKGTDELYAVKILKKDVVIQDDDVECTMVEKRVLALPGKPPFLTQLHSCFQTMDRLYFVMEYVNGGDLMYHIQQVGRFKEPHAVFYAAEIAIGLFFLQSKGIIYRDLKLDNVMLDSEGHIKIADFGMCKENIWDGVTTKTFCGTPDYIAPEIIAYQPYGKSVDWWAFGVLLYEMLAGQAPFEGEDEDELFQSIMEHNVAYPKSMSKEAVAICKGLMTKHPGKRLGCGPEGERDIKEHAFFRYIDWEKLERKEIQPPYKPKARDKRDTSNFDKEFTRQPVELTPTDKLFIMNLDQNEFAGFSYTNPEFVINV

PKC alpha (PKCa) = PKC alpha (PKCa) (Homo sapiens, UniProt P17252); experiment: In vitro kinase assay, PKC alpha; assay type: biochemical; details: 10 μM ATP
Description: Supplementary Table 4. In vitro kinase assay showing the IC 50 concentration of ENDX and
of the 12 PKC family members.
(1 picture or pasted object on this page, not shown here)

PKCβ1 [2] = biological target: T1, PKCβ1; experiment: Surface plasmon resonance (SPR) binding to immobilized PKCβ1; details: 100–8000 nM ENDX; no saturation, accurate KD could not be established
Experimental: Binding assays were performed at 25 °C on a Biacore T200 biosensor (GE healthcare). Purified PKCβ1 protein were immobilized on a CM5 S sensor chip using amino coupling and immobilization buffer (10 mM HEPES, 150 mM NaCl, pH 7.4, P20 0.01% (w/w)) and acetate pH 5.0 at a flow rate of 10 µL/min and reaching 10,000-12,000 resonance units (RUs). ENDX at concentrations ranging from 0–8000 nM in phosphate buffer (Gibco) with 2% DMSO (v/v) and 0.01% (w/w) P20 were run over the chips at a flow rate of 50 µl/min for 30 s. Binding kinetics were derived from sensograms using Biacore BIA evaluation software (GE). Sensograms were subtracted for background contributions, and affinity constants were derived using a steady-state affinity fitting of a 1:1 interaction model.

[3] = test system: AKT phosphorylation in T47D cells; experiment: Immunoblot of AKT phosphorylation, serum starved T47D; assay type: cell-based, human; details: not at 0.01 or 0.10 µM
Experimental: The ENDX hydrochloride utilized in this study was synthesized in collaboration between Mayo Clinic and National Institute of Health (NIH). Estrogen deprived MCF7AC1 were treated with vehicle control or ENDX (National Cancer Institute) for 24 h. For the phorbol 12-myristate 13-acetate (PMA) (LC Laboratories, #P-1680) experiments, MCF7AC1 cells were maintained in serum-free medium for 24 h prior to pretreatment with vehicle or ENDX for 2 h followed by treatment with 20 or 200 nM PMA for 20 min. For the insulin (Sigma-Aldrich, #I0516) experiments, MCF7AC1 and T47D cells were maintained in serum-free medium for 24 h prior to pretreatment with vehicle control or drugs for 2 h followed by treatment with 100 nM insulin for 1 h.
Protein lysates were prepared using the RIPA lysis buffer system (ChemCruz #sc-24948) and quantified using the DC^TM Protein Assay reagents (Bio-Rad #5000112). Equal amounts of protein lysates were separated on 10% Criterion gels (Bio-Rad #3450112), transferred to PVDF membranes (Bio-Rad #1620177), blocked in TBST-5% milk and probed with primary antibodies listed in Supplementary Table 5, at the indicated dilutions. Membranes were incubated with HRP-conjugated anti-rabbit (CST #7074) or anti-mouse (CST #7076) secondary antibodies and visualized using chemiluminescent West Pico (Thermo Scientific #34580) or West Femto (Thermo Scientific #34096) reagents and a Li-Cor Odyssey® XF imager. […] Quantitation of the protein bands signal intensity was performed using the NIH ImageJ image analysis software (https://imagej.nih.gov/ij///index.html). For the quantitation of the phospho protein levels, we first normalized total protein levels to β-actin loading control and used these values to normalize the phospho protein levels and compared change in protein expression levels relative to vehicle control normalized to 1.0. For the quantitation of total protein levels, we normalized the total protein levels to β-actin and compared change in expression levels relative to vehicle control normalized to 1.0. […]

CC/C(=C(\c1ccc(O)cc1)c1ccc(OCCNC)cc1)c1ccccc1 [ENDX, Z-endoxifen]
IC50 (PKCβ1 [1]): 357 nM and 360 nM | IC50 (PKC alpha (PKCa)): > 50000 nM | Binding to PKCβ1 by SPR (PKCβ1 [2]): binds PKCβ1 | Concentration blocking insulin-stimulated AKT^Ser473 phosphorylation [3]: 5 µM
